Data from patent US20240000872A1, “NOVEL BACTERIOPHAGE THAT LYSES ACINETOBACTER GENUS BACTERIA HAVING RESISTANCE TO ANTIBIOTICS” (priority 2020, published 2024).

System: Acinetobacter baumannii strains
Assay: Antibiotic susceptibility test (CLSI disk diffusion test method, read per CLSI 2016); on antibiotic susceptibility S/I/R: key: ‘S’ means susceptible; ‘I’ means intermediate; ‘R’ means resistant; on antibiotic susceptibility class: key: ‘S’ means susceptible; ‘I’ means intermediate; ‘R’ means resistant; on susceptibility category (S/I/R): key: ‘S’ means susceptible; ‘I’ means intermediate; ‘R’ means resistant
Assay type: cell-based
Design: antibiotic susceptibility test value / susceptibility test value (number given before S/I/R) / antibiotic susceptibility value: unit not given here

What does the source list for cortrimoxazole?
antibiotic susceptibility class (host strain YMC14/01/C29): R; antibiotic susceptibility test value (host strain YMC14/01/C29): 320; antibiotic susceptibility class (host strain YMC14/01/IP122): S; antibiotic susceptibility test value (host strain YMC14/01/IP122): 20; antibiotic susceptibility class (host strain YMC14/01/L8): R; antibiotic susceptibility test value (host strain YMC14/01/L8): 320; antibiotic susceptibility class (host strain YMC14/01/P31): R; antibiotic susceptibility test value (host strain YMC14/01/P31): 160; antibiotic susceptibility class (host strain YMC14/01/P117): R; antibiotic susceptibility test value (host strain YMC14/01/P117): 160; antibiotic susceptibility class (host strain YMC14/01/P224): R; antibiotic susceptibility test value (host strain YMC14/01/P224): 320; antibiotic susceptibility class (host strain YMC14/01/P727): R; antibiotic susceptibility test value (host strain YMC14/01/P727): 320; antibiotic susceptibility class (host strain YMC14/01/P728): R; antibiotic susceptibility test value (host strain YMC14/01/P728): 160; antibiotic susceptibility class (host strain YMC14/01/R130): R; antibiotic susceptibility test value (host strain YMC14/01/R130): 320; antibiotic susceptibility class (host strain YMC14/01/R160): R; antibiotic susceptibility test value (host strain YMC14/01/R160): 320; antibiotic susceptibility class (host strain YMC14/01/R198): R; antibiotic susceptibility test value (host strain YMC14/01/R198): 320; antibiotic susceptibility class (host strain YMC14/01/R257): R; antibiotic susceptibility test value (host strain YMC14/01/R257): 320; antibiotic susceptibility class (host strain YMC14/01/R270): R; antibiotic susceptibility test value (host strain YMC14/01/R270): 320; antibiotic susceptibility class (host strain YMC14/01/R324): R; antibiotic susceptibility test value (host strain YMC14/01/R324): 160; antibiotic susceptibility class (host strain YMC14/01/R443): R; antibiotic susceptibility test value (host strain YMC14/01/R443): 320; antibiotic susceptibility class (host strain YMC14/01/R451): R; antibiotic susceptibility test value (host strain YMC14/01/R451): 320; antibiotic susceptibility class (host strain YMC14/01/R560): R; antibiotic susceptibility test value (host strain YMC14/01/R560): 160; antibiotic susceptibility class (host strain YMC14/01/R617): R; antibiotic susceptibility test value (host strain YMC14/01/R617): 320; antibiotic susceptibility class (host strain YMC14/01/R671): R; antibiotic susceptibility test value (host strain YMC14/01/R671): 320; antibiotic susceptibility class (host strain YMC14/01/R732): R; antibiotic susceptibility test value (host strain YMC14/01/R732): 320; antibiotic susceptibility class (host strain YMC14/01/R767): R; antibiotic susceptibility test value (host strain YMC14/01/R767): 160; antibiotic susceptibility class (host strain YMC14/01/R904): S; antibiotic susceptibility test value (host strain YMC14/01/R904): 20; antibiotic susceptibility class (host strain YMC14/01/R905): R; antibiotic susceptibility test value (host strain YMC14/01/R905): 320; antibiotic susceptibility class (host strain YMC14/01/R921): S; antibiotic susceptibility test value (host strain YMC14/01/R921): 40; antibiotic susceptibility class (host strain YMC14/01/R941): R; antibiotic susceptibility test value (host strain YMC14/01/R941): 320; antibiotic susceptibility class (host strain YMC14/01/R958): R; antibiotic susceptibility test value (host strain YMC14/01/R958): 320; antibiotic susceptibility class (host strain YMC14/01/R1006): R; antibiotic susceptibility test value (host strain YMC14/01/R1006): 320; antibiotic susceptibility class (host strain YMC14/01/R1199): R; antibiotic susceptibility test value (host strain YMC14/01/R1199): 160; antibiotic susceptibility class (host strain YMC14/01/R1659): R; antibiotic susceptibility test value (host strain YMC14/01/R1659): 320; antibiotic susceptibility class (host strain YMC14/01/R1722): R; antibiotic susceptibility test value (host strain YMC14/01/R1722): 320; antibiotic susceptibility class (host strain YMC14/01/R1752): S; antibiotic susceptibility test value (host strain YMC14/01/R1752): 20; antibiotic susceptibility class (host strain YMC14/01/R2429): R; antibiotic susceptibility test value (host strain YMC14/01/R2429): 160; antibiotic susceptibility class (host strain YMC14/01/R2572): R; antibiotic susceptibility test value (host strain YMC14/01/R2572): 320; antibiotic susceptibility class (host strain YMC14/01/R2855): R; antibiotic susceptibility test value (host strain YMC14/01/R2855): 320; antibiotic susceptibility class (host strain YMC14/01/R2945): R; antibiotic susceptibility test value (host strain YMC14/01/R2945): 160; antibiotic susceptibility class (host strain YMC14/01/R3007): S; antibiotic susceptibility test value (host strain YMC14/01/R3007): 20; antibiotic susceptibility class (host strain YMC14/01/R3129): S; antibiotic susceptibility test value (host strain YMC14/01/R3129): 20; antibiotic susceptibility class (host strain YMC14/01/R3317): R; antibiotic susceptibility test value (host strain YMC14/01/R3317): 160; antibiotic susceptibility class (host strain YMC14/01/R3474): R; antibiotic susceptibility test value (host strain YMC14/01/R3474): 160; antibiotic susceptibility class (host strain YMC14/01/R3574): R; antibiotic susceptibility test value (host strain YMC14/01/R3574): 160; antibiotic susceptibility class (host strain YMC14/01/U313): R; antibiotic susceptibility test value (host strain YMC14/01/U313): 320; antibiotic susceptibility class (host strain YMC14/01/U318): R; antibiotic susceptibility test value (host strain YMC14/01/U318): 320; antibiotic susceptibility class (host strain YMC14/02/L18): R; antibiotic susceptibility test value (host strain YMC14/02/L18): 160; antibiotic susceptibility class (host strain YMC14/02/P47): R; antibiotic susceptibility test value (host strain YMC14/02/P47): 320; antibiotic susceptibility class (host strain YMC14/02/R1860): R; antibiotic susceptibility test value (host strain YMC14/02/R1860): 320; antibiotic susceptibility class (host strain YMC14/02/R2417): R; antibiotic susceptibility test value (host strain YMC14/02/R2417): 320; antibiotic susceptibility class (host strain YMC14/02/R2599): S; antibiotic susceptibility test value (host strain YMC14/02/R2599): 20; antibiotic susceptibility class (host strain YMC14/02/R2668): R; antibiotic susceptibility test value (host strain YMC14/02/R2668): 320; antibiotic susceptibility class (host strain YMC14/02/R2758): R; antibiotic susceptibility test value (host strain YMC14/02/R2758): 320; antibiotic susceptibility class (host strain YMC14/02/R2781): R; antibiotic susceptibility test value (host strain YMC14/02/R2781): 160; antibiotic susceptibility class (host strain YMC14/02/R3106): R; antibiotic susceptibility test value (host strain YMC14/02/R3106): 320; antibiotic susceptibility class (host strain YMC14/02/R3419): R; antibiotic susceptibility test value (host strain YMC14/02/R3419): 320; antibiotic susceptibility class (host strain YMC14/02/U1607): S; antibiotic susceptibility test value (host strain YMC14/02/U1607): 20; antibiotic susceptibility class (host strain YMC14/03/L9): R; antibiotic susceptibility test value (host strain YMC14/03/L9): 160; antibiotic susceptibility class (host strain YMC14/03/P471): S; antibiotic susceptibility test value (host strain YMC14/03/P471): 20; antibiotic susceptibility class (host strain YMC14/03/R122): S; antibiotic susceptibility test value (host strain YMC14/03/R122): 20; antibiotic susceptibility class (host strain YMC14/03/R217): R; antibiotic susceptibility test value (host strain YMC14/03/R217): 160; antibiotic susceptibility class (host strain YMC14/03/R380): R; antibiotic susceptibility test value (host strain YMC14/03/R380): 320; antibiotic susceptibility class (host strain YMC14/03/R618): S; antibiotic susceptibility test value (host strain YMC14/03/R618): 20; antibiotic susceptibility class (host strain YMC14/03/R2144): R; antibiotic susceptibility test value (host strain YMC14/03/R2144): 160; antibiotic susceptibility class (host strain YMC14/03/U4616): R; antibiotic susceptibility test value (host strain YMC14/03/U4616): 160; antibiotic susceptibility class (host strain YMC14/04/R1078): S; antibiotic susceptibility test value (host strain YMC14/04/R1078): 20; antibiotic susceptibility class (host strain YMC14/04/R1080): S; antibiotic susceptibility test value (host strain YMC14/04/R1080): 20; antibiotic susceptibility S/I/R (host strain YMC14/06/R2359): R; antibiotic susceptibility value (host strain YMC14/06/R2359): 320; susceptibility category (S/I/R) (host strain YMC14/06/R2359): R; susceptibility test value (number given before S/I/R) (host strain YMC14/06/R2359): 320; antibiotic susceptibility S/I/R (host strain YMC14/08/R1169): R; antibiotic susceptibility value (host strain YMC14/08/R1169): 320; susceptibility category (S/I/R) (host strain YMC14/08/R1169): R; susceptibility test value (number given before S/I/R) (host strain YMC14/08/R1169): 320; antibiotic susceptibility S/I/R (host strain YMC14/08/T90): R; antibiotic susceptibility value (host strain YMC14/08/T90): 320; susceptibility category (S/I/R) (host strain YMC14/08/T90): R; susceptibility test value (number given before S/I/R) (host strain YMC14/08/T90): 320; antibiotic susceptibility S/I/R (host strain YMC15/02/R436): R; antibiotic susceptibility value (host strain YMC15/02/R436): 320; susceptibility category (S/I/R) (host strain YMC15/02/R436): R; susceptibility test value (number given before S/I/R) (host strain YMC15/02/R436): 320; antibiotic susceptibility S/I/R (host strain YMC15/02/T28): R; antibiotic susceptibility value (host strain YMC15/02/T28): 320; susceptibility category (S/I/R) (host strain YMC15/02/T28): R; susceptibility test value (number given before S/I/R) (host strain YMC15/02/T28): 320; antibiotic susceptibility S/I/R (host strain YMC15/03/R1604): R; antibiotic susceptibility value (host strain YMC15/03/R1604): 320; susceptibility category (S/I/R) (host strain YMC15/03/R1604): R; susceptibility test value (number given before S/I/R) (host strain YMC15/03/R1604): 320; antibiotic susceptibility S/I/R (host strain YMC15/09/R1869): R; antibiotic susceptibility value (host strain YMC15/09/R1869): 320; susceptibility category (S/I/R) (host strain YMC15/09/R1869): R; susceptibility test value (number given before S/I/R) (host strain YMC15/09/R1869): 320; antibiotic susceptibility S/I/R (host strain YMC16/01/P11): R; antibiotic susceptibility value (host strain YMC16/01/P11): 320; susceptibility category (S/I/R) (host strain YMC16/01/P11): R; susceptibility test value (number given before S/I/R) (host strain YMC16/01/P11): 320; antibiotic susceptibility S/I/R (host strain YMC16/01/R123): R; antibiotic susceptibility value (host strain YMC16/01/R123): 160; susceptibility category (S/I/R) (host strain YMC16/01/R123): R; susceptibility test value (number given before S/I/R) (host strain YMC16/01/R123): 160; antibiotic susceptibility S/I/R (host strain YMC16/01/R198): R; antibiotic susceptibility value (host strain YMC16/01/R198): 160; susceptibility category (S/I/R) (host strain YMC16/01/R198): R; susceptibility test value (number given before S/I/R) (host strain YMC16/01/R198): 160; antibiotic susceptibility S/I/R (host strain YMC16/01/R353): R
